Consider nine molecules from patent publication US9663528B2, “Substituted 1,2,3,4,6,8,12,12a-octahydro-1,4-methanodipyrido[1,2-a:1',2'-d]pyrazines and methods for treating viral infections” (priority 2012, dated 2017).

One data set is described as follows: in vitro. The settings on record: human, CC50 nM in MT-4.
A further data set concerns the target PXR (Homo sapiens (Human), UniProt O75469). The experiment in a line: Human PXR activation assay (luciferase reporter gene assay, DPX2 cells). In kind it is cell-based. The settings on record: human. How it is done:
A stably transformed tumor cell line (DPX2) was plated on 96-well microtiter plates. DPX2 cells harbor the human PXR gene (NR112) and a luciferase reporter gene linked to two promoters identified in the human CYP3A4 gene, namely XREM and PXRE. […] The number of viable cells was determined and the reporter gene activity was assessed. Positive control: […]

A further data set addresses OCT2 (Homo sapiens (Human), UniProt O15244). The experiment in a line: OCT2 inhibition assay (14C-TEA uptake, OCT2-transfected MDCKII cells). In kind it is cell-based. The method, then: On assay day, cells were trypsinized and resuspended in Krebs-Henseleit Buffer (KHB), pH 7.4 at […]. Cells were preincubated for 15 min in assay plate before addition of test compound or substrate. Test compounds were serially diluted in DMSO and then spiked (2 μL) into in 0.4 mL KHB buffer containing wild-type or OCT2-transfected cells and incubated for 10 minutes. Assay was initiated with the addition of 0.1 mL of 100 μM ^14C-TEA in KHB buffer (20 μM final concentration after mixing). The concentration of TEA is based on the Km. After 10 minutes of incubation, the assay mixture was quenched with addition of 0.5 mL of ice-cold 1×PBS buffer. Samples were then centrifuged at 1000 rpm for 5 min and supernatants were removed. Wash steps were repeated four times with ice-cold PBS. Finally, the cell pellets were lysed with 0.2N NaOH and let sit at room temperature for at least 30 min to ensure complete lysis. Samples were then counted on liquid scintillation counter and dpm counts were used to perform the following calculations.

Data set [1] can be described thus: Pharmacokinetic analysis following intravenous administration to beagle dogs. The settings on record: male, dog, 0.5 mg/kg; for MRT / clearance: beagle, in vivo, iv; for Vd: plasma, beagle dogs, IV infusion over 30 min, read-out: Vss. In kind it is in vivo. How it is done: (§1) Pharmacokinetic analysis was performed on various test compounds following intravenous or oral administration to beagle dogs.
(§2) For pharmacokinetic analysis of intravenously administered compounds, the test compounds were formulated in 5% Ethanol, 55% PEG 300, and 40% water at 0.1 mg/mL for IV infusion. For pharmacokinetic analysis of orally administered compounds, the test compounds were formulated as an aqueous suspension in 0.1% Tween 20, 0.5% HPMC LV 100 in Di Water at 1 mg/kg.
(§3) Each dosing group consisted of 3 male, non-naïve purebred beagle dogs. At dosing, the animals weighed between 10 to 13 kg. The animals were fasted overnight prior to dose administration and up to 4 hr after dosing. For studies of intravenous administration, the test article was administered to the animals by intravenous infusion over 30 min. The rate of infusion was adjusted according to the body weight of each animal to deliver a dose of 0.5 mg/kg. For studies of oral administration, the test article was administered according to the body weight of each animal to deliver a dose of 1 mg/kg.
For pharmacokinetic analysis of intravenously administered compounds, serial venous blood samples (approximately 1 mL each) were taken from each animal at 0, 0.250, 0.483, 0.583, 0.750, 1.00, 1.50, 2.00, 4.00, 8.00, 12.0, and 24.0 hours after dosing. The blood samples were collected into Vacutainer™ tubes containing EDTA-K2 as the anti-coagulant and were immediately placed on wet ice pending centrifugation for plasma. An LC/MS/MS method was used to measure the concentration of the test compound in plasma. An aliquot of 100 μL of each plasma sample was added to a clean 96 well plate, and 400 μL of cold acetonitrile/internal standard solution (ACN)/(ISTD) was added. After protein precipitation, an aliquot of 110 μL of the supernatant was transferred to a clean 96-well plate and diluted with 300 μL of water. An aliquot of 25 μL of the above solution was injected into a TSQ Quantum Ultra LC/MS/MS system utilizing a Hypersil Gold C18 HPLC column (50×3.0 mm, 5 μm; Thermo-Hypersil Part #25105-053030). An Agilent 1200 series binary pump (P/N G1312A Bin Pump) was used for elution and separation, and an HTS Pal autosampler (LEAP Technologies, Carrboro, N.C.) was used for sample injection. A TSQ Quantum Ultra triple quadrupole mass spectrometer was utilized in selective reaction monitoring mode (Thermo Finnigan, San Jose, Calif.). Liquid chromatography was performed using two mobile phases: mobile phase A contained 1% acetonitrile in 2.5 mM ammonium formate aqueous solution with pH of 3.0, and mobile phase B contained 90% acetonitrile in 10 mM ammonium formate with pH of 4.6. Non-compartmental pharmacokinetic analysis was performed on the plasma concentration-time data. The resulting data are shown in the first three columns of Table 4. In Table 4, CL refers to clearance, which characterizes the rate at which drug is removed from plasma. The lower the clearance of a drug is, the longer the elimination half-life is in the body. Vss refers to the steady state volume of distribution and indicates how well a drug is distributed into the tissues. The larger the Vss is, the longer the elimination half-life is in the body. MRT refers to mean residence time, which is a measure of the average time molecules exist in the body.

A short description of data set [2]: Pharmacokinetic analysis following oral administration to beagle dogs. The class given is in vivo. The settings on record: male, beagle, dog, in vivo, po, 1 mg/kg. How it is done:
as §1, §2, §3
For pharmacokinetic analysis of orally administered compounds, serial venous blood samples (approximately 0.3 mL each) were taken from each animal at time points of 0, 0.25, 0.50, 1.0, 2.0, 4.0, 6.0, 8.0, 12.0 and 24.0 hours after dosing. Blood samples were collected, prepared and analyzed in a similar way to the intravenous studies described above. Non-compartmental pharmacokinetic analysis was performed on the plasma concentration-time data. The resulting data are shown in the last three columns of Table 4. In Table 4, F (%) refers to oral bioavailability. Cmax refers to the peak plasma concentration of the compound after administration. AUC refers to area under the curve and is a measure of total plasma exposure of the indicated compound.

The mark [3] stands for this setting: OCT2 mediated uptake of 14C-TEA (20 μM), MDCKII cells, read-out: IC50.

Each structure is given as a SMILES string. Where two headings read alike, the source gives them in different places.

Chain of PXR (O75469 whole entry): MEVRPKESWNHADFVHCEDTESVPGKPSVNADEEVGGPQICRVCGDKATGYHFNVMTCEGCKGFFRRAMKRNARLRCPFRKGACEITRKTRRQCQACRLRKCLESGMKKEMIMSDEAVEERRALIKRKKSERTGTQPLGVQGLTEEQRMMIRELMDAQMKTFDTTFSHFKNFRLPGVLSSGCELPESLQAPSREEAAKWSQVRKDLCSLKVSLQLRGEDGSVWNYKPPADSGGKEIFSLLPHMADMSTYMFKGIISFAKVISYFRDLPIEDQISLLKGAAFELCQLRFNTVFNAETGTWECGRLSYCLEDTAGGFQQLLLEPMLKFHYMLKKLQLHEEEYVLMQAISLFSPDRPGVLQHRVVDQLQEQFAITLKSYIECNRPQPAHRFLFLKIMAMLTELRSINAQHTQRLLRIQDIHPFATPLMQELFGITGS
Chain of OCT2 (O15244 whole entry): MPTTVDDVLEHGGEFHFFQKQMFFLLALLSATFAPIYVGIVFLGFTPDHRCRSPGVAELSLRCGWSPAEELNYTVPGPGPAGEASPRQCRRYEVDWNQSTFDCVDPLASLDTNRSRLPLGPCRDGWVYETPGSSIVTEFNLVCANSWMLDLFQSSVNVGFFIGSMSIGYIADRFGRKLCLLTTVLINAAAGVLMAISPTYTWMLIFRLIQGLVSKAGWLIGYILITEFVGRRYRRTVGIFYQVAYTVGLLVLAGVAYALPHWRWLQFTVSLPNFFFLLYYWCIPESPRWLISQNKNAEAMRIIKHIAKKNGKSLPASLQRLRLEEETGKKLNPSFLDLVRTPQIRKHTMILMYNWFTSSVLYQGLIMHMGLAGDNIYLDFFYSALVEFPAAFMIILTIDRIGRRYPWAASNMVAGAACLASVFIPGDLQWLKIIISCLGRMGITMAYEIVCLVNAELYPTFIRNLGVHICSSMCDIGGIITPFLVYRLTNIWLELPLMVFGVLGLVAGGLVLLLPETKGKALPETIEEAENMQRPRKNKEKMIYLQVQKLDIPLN

The term Emax denotes the greatest response seen or fitted, relative to the assay's reference. As a reminder, the IC50 is the concentration that inhibits the measured activity by half. In general, MRT refers to the average time that molecules of a dose stay in the body. For orientation: clearance means a measure of how efficiently the substance is removed, as volume per time. A lower clearance goes with inefficient removal. Broadly, the AUC is the area under the concentration-time curve, a measure of exposure. A high value points to more exposure. By Cmax is commonly meant the peak of the concentration-time curve. Take `O=C(NCc1ccc(F)cc1F)c1cn2c(c(O)c1=O)C(=O)N1[C@@H]3CC[C@@H](C3)O[C@H]1C2` [Compound 3, (2S,5R,13aS)-N-(2,4-difluorobenzyl)-8-hydroxy-7,9-dioxo-2,3,4,5,7,9,13,13a-octahydro-2,5-methanopyrido[1′,2′:4,5]pyrazino[2,1-b][1,3]oxazepine-10-carboxamide]: the CC50 at 5 days in the data set “in vitro” came out at 38400 nM. The maximal effect (Emax) at 24 h, 15 µM on PXR was found to be 7.5%. In addition, the IC50 on OCT2 (setting [3]) came out at 0.25 µM. Also, in data set [1], the MRT was found to be 4.9 h, the clearance is 0.783 mL/min/kg and the Vd amounted to 0.23 L/kg. For the same molecule, in data set [2], the AUC stood at 9.2 µM·h, the Cmax was determined as 1200 nM and the “F (%) aqueous suspension” value is given as 18.7%.

As to `O=C(NCc1c(F)cc(F)cc1F)c1cn2c(c(O)c1=O)C(=O)N1[C@H]3CC[C@H](C3)[C@@H]1C2` [Compound 41, (1R,4S,12aR)-7-hydroxy-6,8-dioxo-N-(2,4,6-trifluorobenzyl)-1,2,3,4,6,8,12,12a-octahydro-1,4-methanodipyrido[1,2-a:1′,2′-d]pyrazine-9-carboxamide], the CC50 at 5 days in “in vitro” worked out at 15700 nM. The Emax at 24 h, 15 µM at PXR worked out at 11.5%. Further, the IC50 against OCT2 stood at 2.82 µM. Besides, in data set [1], the MRT was found to be 7.5 h, the clearance is 0.25 mL/min/kg and the Vd turned out to be 0.11 L/kg. In data set [2], the AUC was 16.3 µM·h, the peak level (Cmax) was 2400 nM and the “F (%) aqueous suspension” value is listed as 10.7%.

In “in vitro”, `O=C(NCc1c(F)cc(F)cc1F)c1cn2c(c(O)c1=O)C(=O)N1[C@H]3CC[C@H](C3)[C@H]1C2` [Compound 55, (1R,4S,12aS)-7-hydroxy-6,8-dioxo-N-(2,4,6-trifluorobenzyl)-1,2,3,4,6,8,12,12a-octahydro-1,4-methanodipyrido[1,2-a:1′,2′-d]pyrazine-9-carboxamide] displayed a CC50 at 5 days of 11100 nM. Further, the maximal response (Emax) at 24 h, 15 µM at PXR amounted to 24%. Further, at OCT2, it took 0.476 µM to reach half-maximal inhibition (IC50). In data set [1], the MRT worked out at 4.2 h, the clearance is 0.967 mL/min/kg and the Vd came out at 0.24 L/kg.

On to `C[C@@H](NC(=O)c1cn2c(c(O)c1=O)C(=O)N1[C@H]3CC[C@H](C3)[C@@H]1C2)c1c(F)cc(F)cc1F` [Compound 77, (1R,4S,12aR)-7-hydroxy-6,8-dioxo-N—((R)-1-(2,4,6-trifluorophenyl)ethyl)-1,2,3,4,6,8,12,12a-octahydro-1,4-methanodipyrido[1,2-a:1′,2′-d]pyrazine-9-carboxamide], for which the CC50 at 5 days in the data set “in vitro” is 10100 nM. The maximal response (Emax) at 24 h, 15 µM on PXR amounted to 11%. On OCT2, this molecule had a half-maximal inhibitory concentration (IC50) of 3.83 µM. Besides, in data set [1], the MRT is 2.2 h, the clearance is 5 mL/min/kg and the Vd was determined as 0.64 L/kg.

`O=C(NCc1c(F)cc(F)cc1F)c1cn2c(c(O)c1=O)C(=O)N1[C@H](C2)[C@H]2C[C@@H]1C(F)(F)C2` [Compound 83, (1S,4R,12aS)-3,3-difluoro-7-hydroxy-6,8-dioxo-N-(2,4,6-trifluorobenzyl)-1,2,3,4,6,8,12,12a-octahydro-1,4-methanodipyrido[1,2-a:1′,2′-d]pyrazine-9-carboxamide] returned a CC50 at 5 days in “in vitro” of 27500 nM. Further, the Emax at 24 h, 15 µM at PXR turned out to be 1%. Moreover, the IC50 at OCT2 (setting [3]) turned out to be 10 µM. In addition, in data set [1], the mean residence time MRT stood at 2.4 h, the clearance was 2.68 mL/min/kg and the Vd stood at 0.38 L/kg.

`O=C(N[C@@H](c1ccc(F)cc1F)C(F)(F)F)c1cn2c(c(O)c1=O)C(=O)N1C(C2)O[C@H]2CC[C@@H]1C2` (stereo partly drawn) [Compound 36, (2S,5R)-N—((S)-1-(2,4-difluorophenyl)-2,2,2-trifluoroethyl)-8-hydroxy-7,9-dioxo-2,3,4,5,7,9,13,13a-octahydro-2,5-methanopyrido[1′,2′:4,5]pyrazino[2,1-b][1,3]oxazepine-10-carboxamide]: the CC50 at 5 days in the data set “in vitro” is 11400 nM. The molecule also displayed an Emax at 24 h, 15 µM on PXR of 3%. Besides, on OCT2, the midpoint of inhibition, the IC50, lay at 10 µM.

In the case of `O=C(NCc1c(F)cc(F)cc1F)c1cn2c(c(O)c1=O)C(=O)N1[C@@H](C2)[C@H]2C[C@@H]1C(F)(F)C2` [Compound 98, (1S,4R,12aR)-3,3-difluoro-7-hydroxy-6,8-dioxo-N-(2,4,6-trifluorobenzyl)-1,2,3,4,6,8,12,12a-octahydro-1,4-methanodipyrido[1,2-a:1′,2′-d]pyrazine-9-carboxamide], the CC50 at 5 days in the data set “in vitro” is 17900 nM. Moreover, on PXR, the Emax at 24 h, 15 µM came to 0%. Moreover, on OCT2 (setting [3]), the IC50 came to 3.73 µM. In data set [1], the mean residence time MRT was determined as 3.3 h, the clearance was 0.783 mL/min/kg and the Vd stood at 0.16 L/kg.

`C[C@H]1C[C@@H]2C[C@H]1N1C(=O)c3c(O)c(=O)c(C(=O)NCc4c(F)cc(F)cc4F)cn3C[C@@H]21` [Compound 99, (1R,3S,4R,12aR)-7-hydroxy-3-methyl-6,8-dioxo-N-(2,4,6-trifluorobenzyl)-1,2,3,4,6,8,12,12a-octahydro-1,4-methanodipyrido[1,2-a:1′,2′-d]pyrazine-9-carboxamide] showed a CC50 at 5 days in “in vitro” of 8480 nM. The same molecule gave a maximal response (Emax) at 24 h, 15 µM at PXR of 17%. Also, 1.51 µM corresponded to half-maximal inhibition at OCT2 (IC50).

In “in vitro”, `O=C(NCc1ccc(F)cc1Cl)c1cn2c(c(O)c1=O)C(=O)N1[C@H]3CC[C@H](C3)O[C@@H]1C2` [Compound 63, (2R,5S,13aR)-N-(2-chloro-4-fluorobenzyl)-8-hydroxy-7,9-dioxo-2,3,4,5,7,9,13,13a-octahydro-2,5-methanopyrido[1′,2′:4,5]pyrazino[2,1-b][,3]oxazepine-10-carboxamide] returned a CC50 at 5 days of 3160 nM. Moreover, the Emax at 24 h, 15 µM at PXR (15 μM, relative to maximum fold induction by 10 or 20 μM rifampicin, DPX2 cells, 24 hours, read-out: % Emax at 15 μM) amounted to 13%. At OCT2 (setting [3]), the IC50 came to 0.042 µM.
